Results on 34 molecules are retold here after patent publication EP0533240A2, “Substituted amine derivatives of piperazinylcamphorsulfonyl oxytocin antagonists” (MERCK & CO. INC., priority 1991, dated 1993).

For one experiment, the target named is T1, uterine OT receptors (Rattus norvegicus, UniProt P70536).
T1 construct: from tissue; host or cells: uterus of DES-treated rats, crude membrane preparation
T1 sequence (P70536 1-388): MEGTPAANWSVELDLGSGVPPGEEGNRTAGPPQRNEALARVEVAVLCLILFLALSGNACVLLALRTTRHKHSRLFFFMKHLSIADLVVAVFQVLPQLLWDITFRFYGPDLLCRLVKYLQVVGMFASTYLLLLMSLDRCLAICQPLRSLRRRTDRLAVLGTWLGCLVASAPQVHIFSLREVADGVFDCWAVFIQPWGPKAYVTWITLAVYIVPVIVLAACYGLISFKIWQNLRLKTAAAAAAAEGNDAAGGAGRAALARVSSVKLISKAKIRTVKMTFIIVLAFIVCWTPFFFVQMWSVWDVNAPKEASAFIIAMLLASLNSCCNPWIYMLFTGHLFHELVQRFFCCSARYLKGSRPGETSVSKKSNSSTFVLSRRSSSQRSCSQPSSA
In words: [3H]Oxytocin radioligand binding assay, crude uterine membrane preparation. Also on record: species or system rats. The settings on record: at 100 nM compound; 1 nM [3H]OT, rat uterine membranes.
Description: Oxytocin (OT)([tyrosyl, 3,5-[^3H]OT; 30-60 Ci/mmol; New England Nuclear. Boston, MA) to uterine OT receptors was based on an assay*using a crude membrane preparation of uteri taken from diethylstilbestrol dipropionate (DES)-treated (0.3 mg/kg, ip; 18-24) rats. Competetion studies were conducted at equilibrium (60 minutes; 22 °C) using 1 nM[^3H]OT in the following assay buffer: 50 mM Tris-HCI, 5 mM MgCl2, and 0.1% BSA, pH 7.4. Nonspecific binding (10% of the total binding) was determined using 1µM unlabeled OT and the binding reaction was terminated by filtration through glass fiber filters using a cell harvester (model 7019, Skatron, Inc., Sterling, VA).
On to `CCOC(=O)CN1CCCC(C(=O)NC(C)CC2(O)CC3CCC2(CS(=O)(=O)N2CCN(c4ccccc4C)CC2)C3(C)C)C1` (stereo not shown) [Example 57], for which the “inhibition at 100 nM” value was found to be 66% inhibition at 100 nM.

For `COC(=O)CCNCC(C)C1(O)CC2CCC1(CS(=O)(=O)N1CCN(c3ccccc3C)CC1)C2(C)C` (stereo not shown) [Example 10], the inhibition at 0.1 µM came to 48%.

`C=CC1(O)CC2CCC1(CS(=O)(=O)N1CCN(c3ccccc3C)CC1)C2(C)C` (stereo not drawn) [Example 12, 1-((7,7-dimethyl-2-exo-hydroxy-2-endo-ethenyl-bicyclo(2.2.1)heptan-1-yl)methanesulfonyl)-4-(2-methylphenyl)piperazine] displayed an inhibition at 0.1 µM of 23%.

The same experiment, now with this note: at 1,000 nM compound; 1 nM [3H]OT, rat uterine membranes.
Turning to `Cc1ccccc1N1CCN(S(=O)(=O)CC23CCC(CC24CO4)C3(C)C)CC1` (stereo not shown) [Example 18], the inhibition at 1 µM was 75%.

`Cc1ccccc1N1CCN(S(=O)(=O)CC23CCC(CC2=CCN)C3(C)C)CC1` (stereo not shown) [Example 16, 1-((7,7-dimethyl-2-(2-amino)ethylidine-bicyclo(2.2.1)heptan-1-yl)methanesulfonyl)-4-(2-methylphenyl)-piperazine] came in with an inhibition at 1 µM of 64%.

The molecule `Cc1ccccc1N1CCN(S(=O)(=O)CC23CCC(C=C2C(=O)O)C3(C)C)CC1` (stereo not shown) [Example 21, 1-((7,7-DIMETHYL-2-CARBOXY-BICYCLO(2.2.1) HEPT-2-EN-1 -YL)METHANESULFONYL)-4-(2-METHYLPHENYL)PIPERAZINE] came in with an inhibition at 1 µM of 38%.

`COC(=O)C1=CC2CCC1(CS(=O)(=O)N1CCN(c3ccccc3C)CC1)C2(C)C` (stereo not shown) [Example 20, 1-((7,7-DIMETHYL-2-METHOXYCARBONYL-BICYCLO (2.2.1)HEPT-2-EN-1-YL)METHANESULFONYL)-4-(2-METHYLPHENYL)PIPERAZINE] yielded an inhibition at 1 µM of 72%.

`Cc1ccccc1N1CCN(S(=O)(=O)CC23CCC(CC2(O)CNCC(C)C)C3(C)C)CC1` (stereo not drawn) [Example 19, 1-((7,7-DIMETHYL-2-EXO-HYDROXY-2-ENDO-ISOBUTYLAMINOMETHYL-BICYCLO(2.2.1 )HEPTAN-1-YL)-METHANESULFONYL)-4-(2-METHYLPHENYL)PIPERAZINE] showed an inhibition at 1 µM of 31%.

`Cc1ccccc1N1CCN(S(=O)(=O)CC23CCC(CC2O)C3(C)C)C(C)C1` (stereo not shown) [Example 32] returned an inhibition at 1 µM of 37%.

`Cc1ccccc1N1CCN(S(=O)(=O)CC23CCC(CC2=CCN=[N+]=[N-])C3(C)C)CC1` (stereo not shown) [Example 15, 1-((7,7-dimethyl-2-(2-azido)ethylidine-bicyclo(2.2.1)heptan-1-yl)methanesulfonyl)-4-(2-methylphenyl)-piperazine] displayed an inhibition at 1 µM of 44%.

The experiment is the same for the next values; noted with them: at 10,000 nM compound; 1 nM [3H]OT, rat uterine membranes.
`Cc1ccccc1N1CCN(S(=O)(=O)CC23CCC(CC2=O)C3(C)C)C(C)C1=O` (stereo not shown) [Example 31] had an inhibition at 10 µM of 5%.

In turn, `Cc1ccccc1N1CCN(S(=O)(=O)CC23CCC(CC2=O)C3(C)C)CC1=O` (stereo not shown) [Example 30] showed an inhibition at 10 µM of 16%.

The same experiment, now with this note: competition with 1 nM [3H]OT, 60 minutes, 22 °C, membranes of uteri from DES-treated rats.
The IC50 is the point on the concentration scale where inhibition reaches its midpoint. Consider `Cc1ccccc1N1CCN(S(=O)(=O)CC23CCC(CC2(O)C(C)CN)C3(C)C)CC1` (single isomer, unassigned) [Example 3, 1-((7,7-DIMETHYL-2-EXO-HYDROXY-2-ENDO-2-(1-AMINO)PROPYL-BICYCLO(2.2.1 )HEPTAN-1-YL)-METHANESULFONYL)-4-(2-METHYLPHENYL)PIPERAZINE], for which the IC50 is 180 nM.

Take `COC(=O)CCN(CCC(=O)OC)CC(C)C1(O)CC2CCC1(CS(=O)(=O)N1CCN(c3ccccc3C)CC1)C2(C)C` (stereo not drawn) [Example 11, 1-((7,7-dimethyl-2-exo-hydroxy-2-endo-2-(1-bis-(2-methoxycarbonylethyl)amino)propylbicyclo(2.2.1)heptan-1-yl)methanesulfonyl)-4-(2-methylphenyl)piperazine]: the 50% inhibitory concentration (IC50) was 54 nM.

Turning to `Cc1ccccc1N1CCN(S(=O)(=O)CC23CCC(CC2NC(=O)C(C)c2c[nH]cn2)C3(C)C)CC1` (stereo not drawn) [Example 44, 1-((7,7-DIMETHYL-2-ENDO-(2-(4-IMIDAZOLYL)PROPANOYL)AMINO-BICYCLO(2.2.1 )HEPTAN-1-YL)-METHANESULFONYL)-4-(2-METHYLPHENYL)-3-PIPERAZINE], the 50% inhibitory concentration (IC50) was determined as 180 nM.

Consider `Cc1ccccc1N1CCN(S(=O)(=O)CC23CCC(CC2(O)C(C)CNC(=O)C2CCCN2CCCC(=O)O)C3(C)C)CC1` [Example 6, 1-((7,7-DIMETHYL-2-EXO-HYDROXY-2-ENDO-2-(1-(L-N-(3-CARBOXYPROPYL)PROLYL)AMINO)PROPYL-BICYCLO(2.2.1) HEPTAN-1 -YL)METHANESULFONYL)-4-(2-METHYLPHENYL) PIPERAZINE], for which the IC50 amounted to 10 nM.

Take `COC(=O)CCN1CCCC(C(=O)NCC(C)C2(O)CC3CCC2(CS(=O)(=O)N2CCN(c4ccccc4C)CC2)C3(C)C)C1` (stereo not shown) [Example 48]: the IC50 amounted to 30 nM.

For the molecule `Cc1ccccc1N1CCN(S(=O)(=O)CC23CCC(CC2=CCNCC(C)C)C3(C)C)CC1` (stereo not shown) [Example 14, 1-((7,7-dimethyl-2-(2-isobutylamino)ethylidine-bicyclo (2.2.1)heptan-1-yl)methanesulfonyl)-4-(2-methylphenyl) piperazine], the IC50 worked out at 1100 nM.

In the case of `Cc1ccccc1N1CCN(S(=O)(=O)CC23CCC(CC2(O)C(C)CNC(=O)C2CCCN2)C3(C)C)CC1` (stereo not shown) [Example 4], the IC50 was 34 nM.

`Cc1ccccc1N1CCN(S(=O)(=O)CC23CCC(CC2(O)C(C)CNC(=O)C2CCCN2CC(=O)O)C3(C)C)CC1` (stereo not shown) [Example 53]: the IC50 amounted to 28 nM.

For `Cc1ccccc1N1CCN(S(=O)(=O)CC23CCC(CC2NC(=O)[C@@H](N)CCS(C)(=O)=O)C3(C)C)CC1=O` (stereo partly drawn) [Example 36, 1-((7,7-DIMETHYL-2-ENDO-(2S-AMINO-4-(METHYLSULFONYL)BUTYRAMIDO)-BICYCLO(2.2.1 )HEPTAN-1-YL)METHANESULFONYL)-4-(2-METHYLPHENYL)-3-PIPERAZINONE], the IC50 amounted to 7.7 nM.

Take `Cc1ccccc1N1CCN(S(=O)(=O)CC23CCC(CC2(O)C(C)CNC(=O)C2CCCN(CCC(=O)O)C2)C3(C)C)CC1` (stereo not drawn) [Example 49, 1-((7,7-DIMETHYL-2-EXO-HYDROXY-2-ENDO-2-(1-(3-(1-CARBOXYETHYL)PIPERIDINYLCARBONYL)-AMINO)PROPYL-BICYCLO-(2.2.1)HEPTAN-1-YL)METHANESULFONYL)-4-(2-METHYLPHENYL) PIPERAZINE]: the IC50 came to 25 nM.

For `COC(=O)CCN1CCCC1C(=O)NCC(C)C1(O)CC2CCC1(CS(=O)(=O)N1CCN(c3ccccc3C)CC1)C2(C)C` (stereo not shown) [Example 45], the half-maximal inhibitory concentration (IC50) is 12 nM.

`COC(=O)CCN1CCC(C(=O)NCC(C)C2(O)CC3CCC2(CS(=O)(=O)N2CCN(c4ccccc4C)CC2)C3(C)C)CC1` (stereo not shown) [Example 55] showed a 50% inhibitory concentration (IC50) of 30 nM.

Consider `COC(=O)C1CC(=O)N(CC(C)C2(O)CC3CCC2(CS(=O)(=O)N2CCN(c4ccccc4C)CC2)C3(C)C)C1` (stereo not shown) [Example 26], for which the half-maximal inhibitory concentration (IC50) came to 35 nM.

`Cc1ccccc1N1CCN(S(=O)(=O)CC23CCC(CC2(O)C(C)CNC(=O)Cc2c[nH]cn2)C3(C)C)CC1` (stereo not shown) [Example 7] registered an IC50 of 8 nM.

`Cc1ccccc1N1CCN(S(=O)(=O)CC23CCC(CC2(O)C(C)CNC(=O)C2CCCNC2)C3(C)C)CC1` (stereo not drawn) [Example 47, 1-((7,7-DIMETHYL-2-EXO-HYDROXY-2-ENDO-2-(1-(3-PIPERIDINYLCARBONYL)AMINO)PROPYL-BICYCLO-(2.2.1)HEPTAN-1-YL) METHANESULFONYL)-4-(2-METHYLPHENYL)PIPERAZINE] had a half-inhibitory concentration (IC50) of 15 nM.

The molecule `Cc1ccccc1N1CCN(S(=O)(=O)CC23CCC(CC2(O)C(C)CNC(=O)C2CCN(CC(=O)O)CC2)C3(C)C)CC1` (stereo not drawn) [Example 58, 1-((7,7-DIMETHYL-2-EXO-HYDROXY-2-ENDO-2-(1-(4-(1-CARBOXYMETHYL)PIPERIDINYLCARBONYL)-AMINO)PROPYL-BICYCLO (2.2.1)HEPTAN-1-YL)METHANESULFONYL)-4-(2-METHYLPHENYL) PIPERAZINE] displayed a 50% inhibitory concentration (IC50) of 56 nM.

With `Cc1ccccc1N1CCN(S(=O)(=O)CC23CCC(CC2(O)C(C)CNC(=O)C2CCCN2CCC(=O)O)C3(C)C)CC1` (stereo not shown) [Example 46], the IC50 worked out at 20 nM.

Molecule `Cc1ccccc1N1CCN(S(=O)(=O)CC23CCC(CC2(O)C(C)C#N)C3(C)C)CC1` (single isomer, unassigned) [Example 2, 1-((7,7-DIMETHYL-2-EXO-HYDROXY-2-ENDO-(1-CYANO)ETHYL-BICYCLO(2.2.1)HEPTAN-1-YL)-METHANESULFONYL)-4-(2-METHYL PHENYL)PIPERAZINE] had a 50% inhibitory concentration (IC50) of 150 nM.

`Cc1ccccc1N1CCN(S(=O)(=O)CC23CCC(CC2(O)C(C)CNC(=O)C2CCN(CCC(=O)O)CC2)C3(C)C)CC1` (stereo not drawn) [Example 56, 1-((7,7-DIMETHYL-2-EXO-HYDROXY-2-ENDO-2-(1-(4-(1-CARBOXYETHYL)PIPERIDINYLCARBONYL)-AMINO)PROPYL-BICYCLO-(2.2.1)HEPTAN-1-YL)METHANESULFONYL)-4-(2-METHYLPHENYL) PIPERAZINE] displayed a concentration for half-maximal inhibition (IC50) of 54 nM.

For the molecule `Cc1ccccc1N1CCN(S(=O)(=O)CC23CCC(CC2(O)C(C)CNC(=O)C2CCCN(CC(=O)O)C2)C3(C)C)CC1` (stereo not shown) [Example 51], the 50% inhibitory concentration (IC50) came to 38 nM.

The molecule `Cc1ccccc1N1CCN(S(=O)(=O)CC23CCC(CC2(O)C(C)CNC(=O)C2CCNCC2)C3(C)C)CC1` (stereo not shown) [Example 54] displayed an IC50 of 14 nM.

For the molecule `Cc1ccccc1N1CCN(S(=O)(=O)CC23CCC(CC2=O)C3(C)C)CC1` (stereo not shown) [Example 1, 1-((7,7-DIMETHYL-2-OXO-BICYCLO(2.2.1)HEPTAN-1-YL) METHANESULFONYL)-4-(2-METHYLPHENYL)-PIPERAZINE], the IC50 was determined as 1000 nM.
